Experimental data from article PMC9130998, “Paclitaxel binds and activates C5aR1: A new potential therapeutic target for the prevention of chemotherapy-induced peripheral neuropathy and hypersensitivity reactions” (Cell Death & Disease, 2022).

Target: T1, complement component 5a receptor 1 (C5aR1) (Homo sapiens, UniProt P21730)
T1 construct: recombinant human C5aR1 with a C-terminal c-Myc tag
T1 sequence (P21730 1-350): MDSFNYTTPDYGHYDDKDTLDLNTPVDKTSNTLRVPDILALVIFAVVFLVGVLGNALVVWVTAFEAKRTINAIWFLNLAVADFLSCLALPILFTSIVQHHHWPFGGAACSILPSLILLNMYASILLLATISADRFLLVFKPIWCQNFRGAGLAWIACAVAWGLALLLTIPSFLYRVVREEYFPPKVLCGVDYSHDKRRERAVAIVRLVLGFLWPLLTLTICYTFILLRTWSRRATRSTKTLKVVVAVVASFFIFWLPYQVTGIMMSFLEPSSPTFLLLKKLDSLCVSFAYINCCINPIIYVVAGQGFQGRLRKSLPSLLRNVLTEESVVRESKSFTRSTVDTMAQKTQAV
Experiment: SPR (BIAcore X100) on immobilized receptor, dose-dependent
Assay type: binding

## CC(=O)O[C@@]12CO[C@@H]1C[C@H](O)[C@@]1(C)C(=O)[C@H](O)C3=C(C)[C@@H](OC(=O)[C@H](O)[C@@H](NC(=O)OC(C)(C)C)c4ccccc4)C[C@@](O)([C@@H](OC(=O)c4ccccc4)[C@H]21)C3(C)C [docetaxel]
  SPR (BIAcore X100) on immobilized receptor, dose-dependent: similarly to paclitaxel, also docetaxel can bind C5aR1 receptor in a dose dependent way (Fig. S2A–D)
